Consider 15 compounds from patent publication US8871753B2, “Macrocyclic compounds and their use as kinase inhibitors” (Incyte Corporation, priority 2008, dated 2014).

What all share (type): biochemical
One experiment concerns the target TYK2 (Homo sapiens, UniProt P29597). Description: TYK2 kinase inhibition (Table A1).
For experiment [1], the target named is T1, Recombinant Human Anaplastic Lymphoma Kinase (Homo sapiens, UniProt Q9UM73).
T1 construct: purchased Invitrogen, Carlsbad, Calif
Description: ALK HTRF kinase assay. An outline of the steps:
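TR-FRET read-out (Eu anti-pTyr antibody + streptavidin-APC) of biotin-peptide phosphorylation by recombinant human enzyme; IC50 by sigmoidal fit with top/bottom baselines and Hill slope.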

The target of experiment [2] is T2, human JAK2 (a.a. 828-1132) (Homo sapiens, UniProt O60674).
T2 construct: JAK2 (a.a. 828-1132); His tag (N); made in house; host or cells: insect cells (baculovirus)
T2 sequence (O60674 828-1132): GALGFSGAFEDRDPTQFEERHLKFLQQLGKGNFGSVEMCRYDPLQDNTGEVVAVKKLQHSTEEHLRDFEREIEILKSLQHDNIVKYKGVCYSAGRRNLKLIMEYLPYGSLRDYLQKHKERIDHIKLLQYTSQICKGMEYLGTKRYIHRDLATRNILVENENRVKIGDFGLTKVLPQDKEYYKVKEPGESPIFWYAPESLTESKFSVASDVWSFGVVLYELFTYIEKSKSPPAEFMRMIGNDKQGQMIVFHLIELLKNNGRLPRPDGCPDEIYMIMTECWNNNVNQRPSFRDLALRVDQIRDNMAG
Description: In vitro JAK kinase assay (HTRF, phosphorylation of a biotinylated peptide), JAK2. An outline of the steps: (§1)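 Phosphorylation of a biotinylated peptide by the JAK kinase domain, detected by HTRF with Eu-Py20 and SA-APC. ATP was 90 μM for JAK1, 30 μM for JAK2 and 3 μM for JAK3. Reactions ran 1 h at room temperature and were stopped with EDTA, followed by 40 min antibody binding.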

In experiment [3] the target is T3, human JAK3 (a.a. 781-1124) (Homo sapiens, UniProt P52333).
T3 construct: JAK3 (a.a. 781-1124); His tag (N); made in house; host or cells: insect cells (baculovirus)
T3 sequence (P52333 781-1124): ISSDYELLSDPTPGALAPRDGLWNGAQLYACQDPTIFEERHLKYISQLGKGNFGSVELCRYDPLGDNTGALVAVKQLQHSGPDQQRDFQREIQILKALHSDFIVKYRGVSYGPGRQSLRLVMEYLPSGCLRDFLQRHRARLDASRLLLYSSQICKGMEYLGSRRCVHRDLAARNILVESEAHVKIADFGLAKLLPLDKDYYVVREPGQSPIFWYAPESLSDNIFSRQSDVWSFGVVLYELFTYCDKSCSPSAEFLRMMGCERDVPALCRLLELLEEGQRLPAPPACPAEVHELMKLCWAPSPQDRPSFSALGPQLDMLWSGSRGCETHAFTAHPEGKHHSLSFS
Description: In vitro JAK kinase assay (HTRF, phosphorylation of a biotinylated peptide), JAK3. An outline of the steps: as §1

The target of experiment [4] is T4, human JAK1 (a.a. 837-1142) (Homo sapiens, UniProt P23458).
T4 construct: human JAK1 (a.a. 837-1142); His tag (N); made in house; host or cells: insect cells (baculovirus)
T4 sequence (P23458 849-1154): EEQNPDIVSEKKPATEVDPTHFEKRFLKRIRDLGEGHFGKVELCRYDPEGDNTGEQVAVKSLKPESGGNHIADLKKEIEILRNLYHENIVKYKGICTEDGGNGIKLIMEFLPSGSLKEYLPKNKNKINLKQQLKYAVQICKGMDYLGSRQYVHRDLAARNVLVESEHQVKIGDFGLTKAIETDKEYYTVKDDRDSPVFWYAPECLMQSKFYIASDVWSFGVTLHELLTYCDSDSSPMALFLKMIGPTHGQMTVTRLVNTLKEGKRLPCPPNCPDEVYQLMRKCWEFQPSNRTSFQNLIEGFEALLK
Description: In vitro JAK kinase assay (HTRF, phosphorylation of a biotinylated peptide), JAK1. The settings on record: read-out: JAK1 IC50. An outline of the steps:
as §1

Where [5] appears, read: compound at 500 nM or 1 mM, 90 μM ATP.
Setting [6] is: method AA1 (30 μM ATP) or AA2 (1000 μM ATP), not stated per value.
[7] abbreviates: method AA1 (3 μM ATP) or AA2 (1000 μM ATP), not stated per value.
The mark [8] stands for this setting: method AA1 (90 μM ATP) or AA2 (1000 μM ATP), not stated per value.
The mark [9] stands for this setting: Table B1, cells without percent sign.
The mark [10] stands for this setting: compound at a concentration of 500 nM or 1 mM (not specified), cells shown as percentage.

Structures are written as SMILES. Structures can show the parent of a compound that is named as a salt. Where two headings read alike, the source gives them in different places.

Sequence of TYK2 (P29597 whole entry): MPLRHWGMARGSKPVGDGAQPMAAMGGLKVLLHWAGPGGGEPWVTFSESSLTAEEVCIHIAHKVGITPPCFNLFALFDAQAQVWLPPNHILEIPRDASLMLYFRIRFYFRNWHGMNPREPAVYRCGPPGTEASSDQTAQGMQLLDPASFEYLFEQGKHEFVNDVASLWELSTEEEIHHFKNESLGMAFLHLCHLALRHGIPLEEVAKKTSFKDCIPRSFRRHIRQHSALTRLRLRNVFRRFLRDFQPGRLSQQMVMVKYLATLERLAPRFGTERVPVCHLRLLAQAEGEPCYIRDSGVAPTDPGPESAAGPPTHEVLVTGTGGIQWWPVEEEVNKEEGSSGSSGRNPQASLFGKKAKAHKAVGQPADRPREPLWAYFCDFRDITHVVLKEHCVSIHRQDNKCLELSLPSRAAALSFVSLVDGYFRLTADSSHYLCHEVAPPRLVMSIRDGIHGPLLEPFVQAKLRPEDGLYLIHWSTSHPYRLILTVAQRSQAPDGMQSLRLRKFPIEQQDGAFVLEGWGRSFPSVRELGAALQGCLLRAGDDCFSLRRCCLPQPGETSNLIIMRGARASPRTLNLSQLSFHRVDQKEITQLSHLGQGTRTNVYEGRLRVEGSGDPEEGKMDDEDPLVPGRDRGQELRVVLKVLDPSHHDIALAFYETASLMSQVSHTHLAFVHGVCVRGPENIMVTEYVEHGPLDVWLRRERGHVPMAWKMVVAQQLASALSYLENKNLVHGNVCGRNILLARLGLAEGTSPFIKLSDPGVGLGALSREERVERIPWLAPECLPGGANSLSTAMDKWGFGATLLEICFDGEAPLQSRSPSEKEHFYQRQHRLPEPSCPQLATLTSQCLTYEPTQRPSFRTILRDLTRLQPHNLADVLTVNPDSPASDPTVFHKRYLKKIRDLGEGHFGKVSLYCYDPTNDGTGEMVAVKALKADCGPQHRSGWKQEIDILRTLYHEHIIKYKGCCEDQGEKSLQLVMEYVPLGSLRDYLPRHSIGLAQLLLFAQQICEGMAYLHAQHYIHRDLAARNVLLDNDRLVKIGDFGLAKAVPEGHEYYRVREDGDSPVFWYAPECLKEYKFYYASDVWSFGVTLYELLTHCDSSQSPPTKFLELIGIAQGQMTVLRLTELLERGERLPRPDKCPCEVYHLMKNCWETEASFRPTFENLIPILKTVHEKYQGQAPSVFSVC
T1 sequence (Q9UM73 19-1620): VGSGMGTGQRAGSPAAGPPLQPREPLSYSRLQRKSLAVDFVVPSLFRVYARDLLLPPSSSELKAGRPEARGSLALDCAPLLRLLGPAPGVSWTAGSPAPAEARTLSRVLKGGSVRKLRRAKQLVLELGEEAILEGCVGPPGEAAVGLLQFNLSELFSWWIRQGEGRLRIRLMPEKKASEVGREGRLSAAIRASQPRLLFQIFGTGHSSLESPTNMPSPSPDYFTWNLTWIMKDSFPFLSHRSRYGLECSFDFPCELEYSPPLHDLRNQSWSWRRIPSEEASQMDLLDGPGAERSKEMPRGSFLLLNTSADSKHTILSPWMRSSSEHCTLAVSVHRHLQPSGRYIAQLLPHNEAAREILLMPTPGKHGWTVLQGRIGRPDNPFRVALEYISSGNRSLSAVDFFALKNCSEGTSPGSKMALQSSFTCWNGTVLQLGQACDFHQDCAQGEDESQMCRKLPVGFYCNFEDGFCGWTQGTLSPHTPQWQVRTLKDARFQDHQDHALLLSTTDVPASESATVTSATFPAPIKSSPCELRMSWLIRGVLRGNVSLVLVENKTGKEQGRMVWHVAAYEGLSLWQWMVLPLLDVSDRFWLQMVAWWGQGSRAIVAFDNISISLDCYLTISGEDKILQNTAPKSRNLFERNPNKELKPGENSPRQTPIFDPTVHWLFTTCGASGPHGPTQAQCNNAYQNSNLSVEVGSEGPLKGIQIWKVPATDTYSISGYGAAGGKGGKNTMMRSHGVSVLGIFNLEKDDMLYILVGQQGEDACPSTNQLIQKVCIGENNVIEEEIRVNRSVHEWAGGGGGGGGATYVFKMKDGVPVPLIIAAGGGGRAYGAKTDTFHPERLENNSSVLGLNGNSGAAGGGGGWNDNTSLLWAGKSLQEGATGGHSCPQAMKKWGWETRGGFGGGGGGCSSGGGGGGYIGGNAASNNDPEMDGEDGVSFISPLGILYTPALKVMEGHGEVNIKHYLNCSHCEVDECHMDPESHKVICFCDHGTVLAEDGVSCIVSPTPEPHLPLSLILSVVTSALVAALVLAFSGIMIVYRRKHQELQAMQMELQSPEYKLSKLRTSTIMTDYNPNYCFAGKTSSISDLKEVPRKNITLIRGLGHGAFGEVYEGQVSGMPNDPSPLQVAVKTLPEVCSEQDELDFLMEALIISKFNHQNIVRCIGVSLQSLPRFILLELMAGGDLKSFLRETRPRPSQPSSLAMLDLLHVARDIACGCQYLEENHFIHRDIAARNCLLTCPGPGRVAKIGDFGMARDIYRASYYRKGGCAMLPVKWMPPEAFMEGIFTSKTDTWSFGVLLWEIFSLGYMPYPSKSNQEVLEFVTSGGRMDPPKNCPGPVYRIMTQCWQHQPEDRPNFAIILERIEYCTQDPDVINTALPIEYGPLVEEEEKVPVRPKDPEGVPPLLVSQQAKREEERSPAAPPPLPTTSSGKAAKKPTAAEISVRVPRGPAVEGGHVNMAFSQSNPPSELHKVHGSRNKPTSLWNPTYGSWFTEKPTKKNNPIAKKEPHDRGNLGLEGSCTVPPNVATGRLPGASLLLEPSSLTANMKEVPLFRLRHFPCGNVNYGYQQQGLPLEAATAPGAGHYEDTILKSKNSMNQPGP

In the case of `O=C(CC1CCN(C(=O)Nc2ccccc2)CC1)Nc1ccc2cc1CCc1cccc(c1)Nc1ncc(Cl)c(n1)N2` [Example A58, 4-(2-{[6-Chloro-2,4,8,22-tetraazatetracyclo[14.3.1.1(3,7).1(9,13)]docosa-1(20),3(22),4,6,9(21),10,12,16,18-nonaen-12-yl]amino}-2-oxoethyl)-N-phenylpiperidine-1-carboxamide trifluoroacetate], the IC50 was determined as 9.9 nM against TYK2, 1.1 nM in experiment [2] (setting [6]), 22 nM in experiment [3] (setting [7]) and 0.2 nM in experiment [4] (setting [8]). Besides, in experiment [1] (setting [5]), the “ALK % of inhibition at a concentration of 500 nM or 1 mM” value (from here on “ALK % of inhibition”) is listed as 38%.

As for `O=C(Nc1ccc2cc1CCc1cccc(c1)Nc1ncc(Cl)c(n1)N2)[C@@H]1CCCN1C(=O)Nc1ccccc1` [Example A69, (2S)—N(2)-[6-Chloro-2,4,8,22-tetraazatetracyclo[14.3.1.1(3,7).1(9,13)]docosa-1(20),3(22),4,6,9(21),10,12,16,18-nonaen-12-yl]-N(1)-phenylpyrrolidine-1,2-dicarboxamide trifluoroacetate], the IC50 on TYK2 was 39 nM; in experiment [2] (setting [6]), 7.7 nM; in experiment [3] (setting [7]), 16 nM; in experiment [4] (setting [8]), 41 nM. Besides, in experiment [1] (setting [5]), the “ALK % of inhibition” value came out at 27%.

In the case of `Cc1noc(C)c1S(=O)(=O)Nc1ccc2cc1CCc1cccc(c1)Nc1ncc(Cl)c(n1)N2` [Example B152, N-[6-Chloro-2,4,8,22-tetraazatetracyclo[14.3.1.1(3,7).1(9,13)]docosa-1(20),3(22),4,6,9(21),10,12,16,18-nonaen-12-yl]-3,5-dimethylisoxazole-4-sulfonamide trifluoroacetate], the IC50 at TYK2 (Table B1) came out at 0.5 nM; in experiment [1] (setting [9]), 430 nM; in experiment [2] (Table B1) it was 0.14 nM; in experiment [3] (Table B1) it was 11 nM; in experiment [4] (Table B1), 0.35 nM.

For the compound `O=C(Nc1nc[nH]n1)Nc1ccc2cc1CCc1cccc(c1)Nc1ncc(Cl)c(n1)N2` [Example B244, N-[6-Chloro-2,4,8,22-tetraazatetracyclo[14.3.1.1(3,7).1(9,13)]docosa-1(20),3(22),4,6,9(21),10,12,16,18-nonaen-12-yl]-N′-1H-1,2,4-triazol-3-ylurea trifluoroacetate], the IC50 was 1.6 nM against TYK2 (Table B1), 19 nM in experiment [2] (Table B1), 2.6 nM in experiment [3] (Table B1) and 9.2 nM in experiment [4] (Table B1). Also, in experiment [1] (setting [10]), the “ALK % of inhibition” value is 63%.

Turning to `[O-][S+]1Cc2cccc(c2)Nc2nc(ncc2Cl)Nc2cccc1c2` (stereo not drawn) [Example D3, 6-Chloro-15-thia-2,4,8,22-tetraazatetracyclo[14.3.1.1(3,7).1(9,13)]docosa-1(20),3(22),4,6,9(21),10,12,16,18-nonaene 15-oxide trifluoroacetate], the IC50 against TYK2 (Table D1) was 40 nM; in experiment [1] (Table D1, 90 μM ATP), 1110 nM; in experiment [2] (Table D1), 6.3 nM; in experiment [3] (Table D1) it was 13 nM; in experiment [4] (Table D1), 25 nM.

On to `CC(=O)N1CC[C@H](NC(=O)Nc2ccc3cc2CCc2cncc(c2)Nc2ncc(Cl)c(n2)N3)C1` [Example B226, N-[(3S)-1-Acetylpyrrolidin-3-yl]-N′-[6-chloro-2,4,8,18,22-pentaazatetracyclo[14.3.1.1(3,7).1(9,13)]docosa-1(20),3(22),4,6,9(21),10,12,16,18-nonaen-12-yl]urea bis(trifluoroacetate)], for which the concentration for half-maximal inhibition (IC50) against TYK2 (Table B1) was determined as 62 nM; in experiment [2] (Table B1), 42 nM; in experiment [3] (Table B1), 306 nM; in experiment [4] (Table B1), 4 nM. In experiment [1] (setting [10]), the “ALK % of inhibition” value is listed as 15%.

In the case of `Cc1noc(C)c1NC(=O)N1CCC(CC(=O)Nc2ccc3cc2CCc2cncc(c2)Nc2ncc(Cl)c(n2)N3)CC1` [Example A145, 4-(2-{[6-Chloro-2,4,8,18,22-pentaazatetracyclo[14.3.1.1(3,7).1(9,13)]docosa-1(20),3(22),4,6,9(21),10,12,16,18-nonaen-12-yl]amino}-2-oxoethyl)-N-(3,5-dimethylisoxazol-4-yl)piperidine-1-carboxamide bis(trifluoroacetate)], the IC50 at TYK2 is 43 nM; in experiment [2] (setting [6]), 30 nM; in experiment [3] (setting [7]), more than 100 nM; in experiment [4] (setting [8]), 16 nM. The “ALK % of inhibition” value in experiment [1] (compound at 500 nM or 1 mM, 90 μM ATP, bis(trifluoroacetate)) amounted to 21%.

Consider `O=S(=O)(Nc1ccc2cc1CCc1cccc(c1)Nc1ncc(Cl)c(n1)N2)c1ccccc1` [Example B136, N-[6-Chloro-2,4,8,22-tetraazatetracyclo[14.3.1.1(3,7).1(9,13)]docosa-1(20), 3(22),4,6,9(21),10,12,16,18-nonaen-12-yl]benzenesulfonamide trifluoroacetate], for which the IC50 on TYK2 (Table B1) was 0.76 nM; in experiment [1] (setting [9]) it was 240 nM; in experiment [2] (Table B1) it was 0.1 nM; in experiment [3] (Table B1), 2.3 nM; in experiment [4] (Table B1) it was 0.24 nM.

Regarding `O=C(Nc1ccc(Cl)cc1)Nc1ccc2cc1CCc1cccc(c1)Nc1ncc(Cl)c(n1)N2` [Example B86, N-(4-Chlorophenyl)-N′-[6-chloro-2,4,8,22-tetraazatetracyclo[14.3.1.1(3,7).1(9,13)]docosa-1(20),3(22),4,6,9(21),10,12,16,18-nonaen-12-yl]urea trifluoroacetate], the IC50 is 6.4 nM against TYK2 (Table B1); more than 1000 nM in experiment [1] (setting [9]); 2.6 nM in experiment [2] (Table B1); 27 nM in experiment [3] (Table B1); 2.7 nM in experiment [4] (Table B1).

For `CN(Cc1ccc2cc1CCc1cncc(c1)Nc1ncc(Cl)c(n1)N2)CC1CCN(S(=O)(=O)c2ccccc2)CC1` [Example B341, 1-[6-Chloro-2,4,8,18,22-pentaazatetracyclo[14.3.1.1(3,7).1(9,13)]docosa-1(20),3(22),4,6,9(21),10,12,16,18-nonaen-12-yl]-N-methyl-N-{[1-(phenylsulfonyl)piperidin-4-yl]methyl}methanamine tris(trifluoroacetate)], the IC50 against TYK2 (Table B1) is more than 400 nM; in experiment [2] (Table B1), 146 nM; in experiment [3] (Table B1) it was more than 400 nM; in experiment [4] (Table B1), 13 nM. The “ALK % of inhibition” value in experiment [1] (percentage inhibition of the example compound at a concentration of 500 nM or 1 mM (not specified which)) is recorded as 27%.

For `CC(C)(C)NS(=O)(=O)c1cc2cc(c1)Nc1nc(ncc1Cl)Nc1cccc(c1)CC2` [Example B16, N-(tert-Butyl)-6-chloro-2,4,8,22-tetraazatetracyclo[14.3.1.1(3,7).1(9,13)]docosa-1(20),3(22),4,6,9(21),10,12,16,18-nonaene-11-sulfonamide trifluoroacetate], the IC50 is 206 nM on TYK2 (Table B1); more than 10000 nM in experiment [1] (setting [9]); 7.5 nM in experiment [2] (Table B1); 182 nM in experiment [3] (Table B1); 52 nM in experiment [4] (Table B1).

As to `N#Cc1ccccc1N1CCN(C(=O)Nc2ccc3cc2CCc2cncc(c2)Nc2ncc(Cl)c(n2)N3)CC1` [Example B300, N-[6-Chloro-2,4,8,18,22-pentaazatetracyclo[14.3.1.1(3,7).1(9,13)]docosa-1(20),3(22),4,6,9(21),10,12,16,18-nonaen-12-yl]-4-(2-cyanophenyl)piperazine-1-carboxamide tris(trifluoroacetate)], the IC50 at TYK2 (Table B1) is 27 nM; in experiment [2] (Table B1), 160 nM; in experiment [3] (Table B1) it was more than 400 nM; in experiment [4] (Table B1) it was 16 nM. Moreover, in experiment [1] (setting [10]), the “ALK % of inhibition” value is given as 77%.

Regarding `N#Cc1ccc(C(=O)N2CCC(CC(=O)Nc3ccc4cc3CCc3cccc(c3)Nc3ncc(Cl)c(n3)N4)CC2)cc1` [Example A186, N-[6-Chloro-2,4,8,22-tetraazatetracyclo[14.3.1.1(3,7).1(9,13)]docosa-1(20),3(22),4,6,9(21),10,12,16,18-nonaen-12-yl]-2-[1-(4-cyanobenzoyl)piperidin-4-yl]acetamide trifluoroacetate], the IC50 is more than 200 nM on TYK2, 185 nM in experiment [2] (setting [6]), more than 200 nM in experiment [3] (setting [7]) and 58 nM in experiment [4] (setting [8]). Moreover, the “ALK % of inhibition” value in experiment [1] (setting [5]) was determined as 38%.

In the case of `O=C(Nc1ccc2cc1CCc1cccc(c1)Nc1ncc(Cl)c(n1)N2)c1cccc(F)c1` [Example B48, N-[6-Chloro-2,4,8,22-tetraazatetracyclo[14.3.1.1(3,7).1(9,13)]docosa-1(20), 3(22),4,6,9(21),10,12,16,18-nonaen-12-yl]-3-fluorobenzamide trifluoroacetate], the IC50 at TYK2 (Table B1) came out at 1.7 nM; in experiment [1] (setting [9]), 160 nM; in experiment [2] (Table B1) it was 0.44 nM; in experiment [3] (Table B1), 2.6 nM; in experiment [4] (Table B1), 0.96 nM.

In the case of `Cc1cccc(NC(=O)Nc2ccc3cc2CCc2cccc(c2)Nc2ncc(Cl)c(n2)N3)c1` [Example B90, N-[6-Chloro-2,4,8,22-tetraazatetracyclo[14.3.1.1(3,7).1(9,13)]docosa-1(20), 3(22),4,6,9(21),10,12,16,18-nonaen-12-yl]-N′-(3-methylphenyl)urea trifluoroacetate], the IC50 against TYK2 (Table B1) was 20 nM; in experiment [1] (setting [9]), more than 1000 nM; in experiment [2] (Table B1), 7.7 nM; in experiment [3] (Table B1), 73 nM; in experiment [4] (Table B1), 5.2 nM.
